Source: ChEMBL document CHEMBL5523681, “Lysosome-targeted Aza-BODIPY photosensitizers for anti-cancer photodynamic therapy” (Bioorg Med Chem, 2024)
The source made the active and inactive calls. No cut-off for these calls is given here.

Key:
[1] = Dark toxicity in human HeLa cells incubated for 3 hrs by CCK-8 assay; type: cell-based
[2] = Dark toxicity in human HepG2 cells incubated for 3 hrs by CCK-8 assay; type: cell-based
[3] = Dark toxicity in mouse B16-F10 cells incubated for 3 hrs by CCK-8 assay; type: cell-based
HeLa [4] = experiment: Cytotoxicity against human HeLa cells preincubated with compound for 3 hrs followed by 81 J/cm2 light irradiation and measured after 24 hrs by CCK8 assay; type: functional, cell-based; conditions: light or radiation study
HepG2 = experiment: Cytotoxicity against human HepG2 cells preincubated with compound for 3 hrs followed by 81 J/cm2 light irradiation and measured after 24 hrs by CCK8 assay; type: functional, cell-based; conditions: HepG2, light or radiation study
B16-F10 = experiment: Cytotoxicity against mouse B16-F10 cells preincubated with compound for 3 hrs followed by 81 J/cm2 light irradiation and measured after 24 hrs by CCK8 assay; type: functional, cell-based; conditions: B16-F10, light or radiation study
[5] = Photosensitizing ability of the compound in DMF at pH 7 assessed as singlet oxygen quantum yield; type: functional
[6] = Photosensitizing ability of the compound in DMF at pH 5.2 assessed as singlet oxygen quantum yield in presence of HCl; type: functional
[7] = Ratio of singlet oxygen quantum yield in DMF at pH 5.2 in presence of HCl to singlet oxygen quantum yield in DMF at pH 7; type: functional
[8] = Photosensitizing ability of the compound in PBS at pH 7.4 assessed as singlet oxygen production by measuring relative degradation rate of DPBF at 411 nm under photoirradiation with 90 mW/cm2 light by absorbance based assay; type: functional
[9] = Photosensitizing ability of the compound in PBS at pH 5.2 in presence of HCl assessed as singlet oxygen production by measuring relative degradation rate of DPBF at 411 nm under photoirradiation with 90 mW/cm2 light by absorbance based assay; type: functional
[10] = Ratio of relative degradation rate of DPBF in PBS at pH 5.2 in presence of HCl to relative degradation rate of DPBF in PBS at pH 7; type: physicochemical; conditions: buffer
[11] = Stability of compound in DMF under dark condition; type: physicochemical
[12] = Stability of compound in CH3CN under dark condition; type: physicochemical
[13] = Stability of compound in emulsified PBS buffer under dark condition; type: physicochemical
[14] = Photostability of compound in emulsified PBS buffer in presence of […] light irradiation measured upto 10 mins by absorption based assay; type: physicochemical
MRC5 = experiment: Cytotoxicity against human MRC5 cells in presence of 16 J/cm^2 light irradiation; type: functional, cell-based; conditions: MRC5, light or radiation study
[15] = Drug localization in mitochondria of human HeLa cells at 5 uM incubated for 2 hrs by Mito-tracker green dye based confocal scanning microscopic analysis; type: ADME
[16] = Drug localization in endoplasmic reticulum of human HeLa cells at 5 uM incubated for 2 hrs by ER-Tracker blue dye based confocal scanning microscopic analysis; type: ADME, subcellular
HeLa [17] = experiment: Antitumor activity against human HeLa cells xenografted in female BALB/c nude mouse assessed as inhibition of tumor growth at 2 mg/kg, iv preadministered with compound for 3 hrs followed by 54 J/cm2 light irradiation and measured after 24 days; type: functional, organism-based; conditions: time 24.0 day
[18] = Toxicity in female BALB/c nude mouse xenografted with human HeLa cells assessed as decrease in body weight at 2 mg/kg, iv preadministered with compound for 3 hrs followed by 54 J/cm2 light irradiation and measured after 24 days; type: organism-based; conditions: in vivo, 576 h, time 24 day
[19] = Drug uptake in human HeLa cells assessed as increase in fluorescence intensity at 5 uM by confocal scanning microscopic analysis; type: ADME, cell-based; conditions: 5 h, TDE = time-dependent effect
[20] = Drug uptake in mouse B16-F10 cells measured after 4 hrs by confocal scanning microscopic analysis; type: ADME, cell-based; conditions: b16-f10, 4 h
[21] = Drug localization in lysosome of human HeLa cells at 5 uM incubated for 3 hrs by Lyso-tracker blue dye based confocal scanning microscopic analysis; type: ADME, subcellular
[22] = Drug localization in mitochondria of human HeLa cells at 5 uM incubated for 3 hrs by Mito-tracker green dye based confocal scanning microscopic analysis; type: ADME
[23] = Drug localization in endoplasmic reticulum of human HeLa cells at 5 uM incubated for 3 hrs by ER-Tracker blue dye based confocal scanning microscopic analysis; type: ADME, subcellular
HeLa [24] = experiment: Induction of ROS production in human HeLa cells assessed as increase in fluorescence intensity at 20 to 500 nM incubated for 3 hrs in presence of 81 J/cm2 light irradiation by confocal scanning microscopic analysis; type: functional, cell-based; conditions: dose 20-500 nM
[25] = Fluorescence property of compound assessed as quantum yield; type: physicochemical
[26] = Drug uptake in female BALB/c nude mouse xenografted with human HeLa cells at 2 mg/kg, iv measured after 3 hrs by fluorescence imaging analysis; type: ADME, organism-based; conditions: in vivo
[27] = Drug uptake in liver of female BALB/c nude mouse xenografted with human HeLa cells at 2 mg/kg, iv measured after 3 hrs by fluorescence imaging analysis; type: ADME, organism-based; conditions: in vivo
[28] = Drug uptake in lung of female BALB/c nude mouse xenografted with human HeLa cells at 2 mg/kg, iv measured after 3 hrs by fluorescence imaging analysis; type: ADME, organism-based; conditions: in vivo
[29] = Drug uptake in spleen of female BALB/c nude mouse xenografted with human HeLa cells at 2 mg/kg, iv measured after 3 hrs by fluorescence imaging analysis; type: ADME, organism-based; conditions: in vivo
HeLa [30] = experiment: Antitumor activity against human HeLa cells xenografted in female BALB/c nude mouse assessed as reduction in tumor size at 2 mg/kg, iv preadministered with compound for 3 hrs followed by 54 J/cm2 light irradiation and measured after 24 days relative to control; type: functional; design: scale not given: the % may be the effect or the level left; conditions: time 24 day
[31] = Toxicity in female BALB/c nude mouse xenografted with human HeLa cells assessed as decrease in body weight at 2 mg/kg, iv preadministered with compound for 3 hrs followed by 54 J/cm2 light irradiation and measured after 10 days; type: organism-based; conditions: in vivo, 240 h, time 10 day
[32] = Fluorescence property of compound assessed as quantum yield in CHCl3 by spectroscopic analysis; type: physicochemical

Ratio [10]	Stability [11]	Stability [12]	Stability [13]	Stability [14]	SMILES	IC50 at 3 h [1]	IC50 at 3 h [2]	IC50 at 3 h [3]	IC50 (HeLa [4])	IC50 (HepG2)	IC50 (B16-F10)	Activity [5]	Activity [6]	Ratio [7]	Activity [8]	Activity [9]	Activity (HeLa [17])	also measured
1.08	Unstable	Unstable	Unstable	Unstable	CCN(CC)Cc1ccc(C2=C(Br)C(c3ccc(OC)cc3)=[N+]3C2=Nc2c(-c4ccc(CN(CC)CC)cc4)c(Br)c(-c4ccc(OC)cc4)n2[B-]3(F)F)cc1	22 µM	23.5 µM	33.1 µM	44.9 nM	70.6 nM	20.8 nM	0.25	0.65	2.6	1.06	1.15	–	EC50 (MRC5): 5.8 nM
1.01	–	–	–	Stable	COc1ccc(C2=[N+]3C(=Nc4c(-c5ccccc5)cc(-c5ccc(OC)cc5)n4[B-]3(F)F)C(c3ccccc3)=C2I)cc1	> 50 µM	> 50 µM	> 50 µM	26.7 nM	38.6 nM	155 nM	0.52	0.51	0.98	1.18	1.19	Active	Drug uptake [15]: Not Active; Drug uptake [16]: Not Active; Activity [18]: Non-Toxic
1.36	Stable	Stable	Stable	Stable	CCN(CC)Cc1ccc(C2=C(I)C(c3ccc(OC)cc3)=[N+]3C2=Nc2c(-c4ccc(CN(CC)CC)cc4)cc(-c4ccc(OC)cc4)n2[B-]3(F)F)cc1	> 50 µM	> 50 µM	> 50 µM	5.3 nM	15.1 nM	7.9 nM	0.44	0.65	1.48	1.07	1.45	Active	Drug uptake [19]: Tde; Drug uptake [20]: Active; Drug uptake [21]: Active; Drug uptake [22]: Not Active; Drug uptake [23]: Not Active; Activity (HeLa [24]): Active; Activity [25]: 0.05; Drug uptake [26]: Active; Drug uptake [27]: Active; Drug uptake [28]: Active; Drug uptake [29]: Active; Activity (HeLa [30]): 60%; Activity [18]: Non-Toxic
1.2	Unstable	Unstable	Unstable	Unstable	CCN(CC)Cc1ccc(C2=C(I)C(c3ccc(OC)cc3)=[N+]3C2=Nc2c(-c4ccc(CN(CC)CC)cc4)c(I)c(-c4ccc(OC)cc4)n2[B-]3(F)F)cc1	26.1 µM	28.9 µM	49.6 µM	51.1 nM	73.5 nM	73.5 nM	0.61	0.75	1.23	0.91	1.09	–	–
1.44	Stable	Stable	Stable	Stable	CCN(CC)Cc1ccc(C2=C(I)C(c3ccc(OC)cc3)=[N+]3C2=Nc2c(-c4ccccc4)c4c(n2[B-]3(F)F)-c2ccc(OC)cc2CC4)cc1	> 50 µM	> 50 µM	> 50 µM	6.7 nM	14.1 nM	15 nM	0.44	0.51	1.16	0.84	1.21	–	–
–	–	–	–	–	C=Cc1c(C)c2cc3nc(c(CC(=O)O)c4[nH]c(cc5nc(cc1[nH]2)C(C)=C5CC)c(C)c4C(=O)O)[C@@H](CCC(=O)O)[C@@H]3C [CHLORIN E6]	–	–	–	–	–	–	–	–	–	–	–	Active	Activity [31]: Toxic
–	–	–	–	–	COc1ccc(C2=N/C(=N\c3[nH]c(-c4ccc(OC)cc4)cc3-c3ccccc3)C(c3ccccc3)=C2)cc1	–	–	–	–	–	–	–	–	–	–	–	–	Activity [32]: 0.36
1.13	Unstable	Unstable	Unstable	Unstable	CCN(CC)Cc1ccc(C2=C(I)C(c3ccc(OC)cc3)=[N+]3C2=Nc2c(-c4ccccc4)c(I)c(-c4ccc(OC)cc4)n2[B-]3(F)F)cc1	> 50 µM	49.4 µM	49.9 µM	60.8 nM	132 nM	78.6 nM	0.58	0.74	1.28	0.87	0.98	–	–
